# Numbering of substitutions follows the chain as printed.
# Legend:
# Format in all cases: cell-based
# [1] = biological target: T1, GluRδ2^Lc E531A (Rattus norvegicus, UniProt Q63226, A654T/E531A); assay: Two-electrode voltage-clamp recordings in Xenopus oocytes, GluRδ2^Lc E531A
# T1 sequence (Q63226 24-1007 E531A/A654T): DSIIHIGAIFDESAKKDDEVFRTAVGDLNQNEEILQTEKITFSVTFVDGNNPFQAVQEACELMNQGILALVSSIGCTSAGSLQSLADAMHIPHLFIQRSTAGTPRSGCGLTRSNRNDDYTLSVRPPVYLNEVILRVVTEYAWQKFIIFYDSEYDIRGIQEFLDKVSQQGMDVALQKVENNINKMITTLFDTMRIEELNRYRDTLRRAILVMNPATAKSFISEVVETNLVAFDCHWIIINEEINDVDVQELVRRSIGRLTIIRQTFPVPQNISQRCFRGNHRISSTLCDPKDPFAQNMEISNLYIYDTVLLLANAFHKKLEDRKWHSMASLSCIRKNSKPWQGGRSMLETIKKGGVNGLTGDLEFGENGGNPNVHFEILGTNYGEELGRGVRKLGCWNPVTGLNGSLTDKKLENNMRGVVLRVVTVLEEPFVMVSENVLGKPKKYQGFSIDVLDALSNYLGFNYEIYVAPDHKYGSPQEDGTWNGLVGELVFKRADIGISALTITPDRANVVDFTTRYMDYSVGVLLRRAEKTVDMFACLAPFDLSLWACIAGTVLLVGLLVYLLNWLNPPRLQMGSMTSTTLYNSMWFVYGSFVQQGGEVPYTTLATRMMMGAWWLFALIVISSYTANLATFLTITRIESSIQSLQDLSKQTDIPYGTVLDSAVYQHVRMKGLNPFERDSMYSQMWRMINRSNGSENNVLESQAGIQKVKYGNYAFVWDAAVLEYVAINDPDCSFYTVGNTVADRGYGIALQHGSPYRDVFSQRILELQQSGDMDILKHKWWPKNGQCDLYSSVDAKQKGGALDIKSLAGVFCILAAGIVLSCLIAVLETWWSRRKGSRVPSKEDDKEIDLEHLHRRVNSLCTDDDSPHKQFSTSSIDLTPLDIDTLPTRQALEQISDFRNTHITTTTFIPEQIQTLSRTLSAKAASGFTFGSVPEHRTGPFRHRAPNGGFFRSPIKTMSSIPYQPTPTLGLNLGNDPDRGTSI
# [2] = biological target: T2, GluRδ2^Lc D535A (Rattus norvegicus, UniProt Q63226, A654T/D535A); assay: Two-electrode voltage-clamp recordings in Xenopus oocytes, GluRδ2^Lc D535A
# T2 sequence (Q63226 24-1007 D535A/A654T): T1 sequence (Q63226 24-1007 E531A/A654T) with A508E, D512A
# [3] = biological target: T3, GluRδ2^Lc D535C+D782C (Rattus norvegicus, UniProt Q63226, A654T/D535C/D782C); assay: Two-electrode voltage-clamp recordings in Xenopus oocytes, GluRδ2^Lc D535C+D782C
# T3 sequence (Q63226 24-1007 D535C/A654T/D782C): T1 sequence (Q63226 24-1007 E531A/A654T) with A508E, D512C, D759C
SMILES,"Ca^2+ potentiation (relative to baseline) ([1]; 3 mM Ca^2+, ± SEM) [fold]","Ca^2+ potentiation (relative to baseline) ([2]; 3 mM Ca^2+, ± SEM) [fold]","Ca^2+ potentiation (relative to baseline) ([3]; 3 mM Ca^2+, ± SEM) [fold]","D-serine + 0 mM Ca^2+ nH ([1]; Hill slope, 0 mM Ca^2+)","D-serine + 3 mM Ca^2+ nH ([1]; Hill slope, 3 mM Ca^2+)","D-serine + 0 mM Ca^2+ nH ([2]; Hill slope, 0 mM Ca^2+)","D-serine + 3 mM Ca^2+ nH ([2]; Hill slope, 3 mM Ca^2+)","D-serine + 0 mM Ca^2+ nH ([3]; Hill slope, 0 mM Ca^2+)","D-serine + 3 mM Ca^2+ nH ([3]; Hill slope, 3 mM Ca^2+)"
"[Ca+2] [Ca^2+, calcium]",1.6 ± 0.08,1.0 ± 0.01,0.9 ± 0.01,–,–,–,–,–,–
N[C@H](CO)C(=O)O [D-serine],–,–,–,1.1,1.9,2.3,2.2,0.9,1.0
